{"source": "patent US20160356723A1", "about": "“Light-Up Probes Based On Fluorogens With Aggregation Induced Emission Characteristics For Cellular Imaging And Drug Screening” (NATIONAL UNIVERSITY OF SINGAPORE, priority 2014, published 2016)", "key": {"[1]": {"target": "T1, recombinant human caspase-3 (Homo sapiens, UniProt P42574)", "T1 construct": "purchased R&D Systems", "T1 sequence (P42574 29-175 limits assumed)": "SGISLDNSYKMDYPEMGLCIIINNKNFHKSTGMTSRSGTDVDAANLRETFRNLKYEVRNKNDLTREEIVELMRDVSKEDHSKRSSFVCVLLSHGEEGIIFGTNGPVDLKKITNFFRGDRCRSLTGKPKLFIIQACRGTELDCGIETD", "T1 sequence (P42574 176-277 limits assumed)": "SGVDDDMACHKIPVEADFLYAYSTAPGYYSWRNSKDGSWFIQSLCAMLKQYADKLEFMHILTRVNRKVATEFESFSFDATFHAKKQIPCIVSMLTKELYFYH", "assay": "Enzymatic assay: fluorescence light-up on DEVD cleavage by caspase-3", "assay_type": "biochemical", "protocol": "DMSO stock solutions of TPS-DEVD-Pt-cRGD were diluted with a mixture of DMSO and PIPES (v/v=1/199) to 10 μM. Next, each probe was incubated with ascorbic acid or caspase-3 at room temperature and the change of fluorescence intensity was measured. The PL spectra were collected from 420 to 650 nm under an excitation wavelength at 365 nm.\nTo study the enzymatic response of TPS-DEVD-COOH, we performed in vitro enzymatic assays with recombinant human caspase-3. Mixtures of the ascorbic acid pretreated prodrug (10 μM) and caspases-3 (200 pM) were prepared and incubated in PIPES buffer. After 1 h incubation, the PL spectra were measured in the range from 425 to 650 nm.\nThe fluorescence change of the TPS-DEVD-Pt-cRGD solution (10 μM) upon addition of ascorbic acid and caspase-3 enzyme was also monitored over time in a mixture of DMSO/PIPEs (v/v=1/199) buffer. […] We further studied the effect of caspase-3 concentration on the solution emission."}, "[2]": {"tested_on": "MDA-MB-231 cells", "assay": "MTT cytotoxicity, MDA-MB-231", "assay_type": "cell-based", "details": "different concentrations, 72 h", "text": "(§1) We next studied the cytotoxicity profile of the prodrug to MDA-MB-231 and MCF-7 cells by a MTT assay."}, "[3]": {"tested_on": "MCF-7 cells", "assay": "MTT cytotoxicity, MCF-7", "assay_type": "cell-based", "details": "72 h", "protocol": "3-(4,5-Dimethythiazol-2-yl)-2,5-diphenyltetrazolium bromide (MTT) assays were used to assess the metabolic activity of U87-MG and MCF-7 cancer cells. The cells were seeded in 96-well plates (Costar, Ill., USA) at an intensity of 4×10^4 cells mL^−1. After 24 h incubation, the medium was replaced by the probe suspension at different concentration of the prodrug and incubated at 37° C. After the designated time intervals, the wells were washed twice with 1×PBS buffer, and 100 μL of freshly prepared MTT (0.5 mg mL^−1) solution in culture medium was added into each well. The MTT medium solution was carefully removed after 3 h incubation in the incubator at 37° C. DMSO (100 μL) was then added into each well and the plate was gently shaken to dissolve all the precipitates formed. The absorbance of MTT at 570 nm was monitored by the microplate reader (Genios Tecan). Cell viability was expressed by the ratio of absorbance of the cells incubated with probe suspension to that of the cells incubated with culture medium only.\nWe next compared the relationship between the apoptosis induced fluorescence intensity change in cells and the cytotoxicity profile of the prodrug using both U87-MG and MCF-7 cells as an example. The fluorescence intensities at 480 nm are monitored upon excitation at 365 nm after incubation the cells for 6 h. The cytotoxicity of the cells was evaluated by a standard MTT method after the incubation for 72 h. In this experiment, we studied this effect using both U87-MG and MCF-7 cells. […] Also, we can find that higher cell viability of the cells will show lower fluorescence intensity which means low degrees of cell apoptosis. For example, when both cells are treated with 5 μM TPS-DEVD-Pt-cRGD, the cell viability is only 31% for U87-MG cells after 72 h incubation, while in sharp contrast, the cell viability is 92% for MCF-7 cells at the same conditions.\nas §1"}, "[4]": {"tested_on": "apoptotic U87-MG cell lysate", "assay": "Fluorescence in apoptotic cell lysate (STS pretreated)", "assay_type": "biochemical, human", "details": "5 μM probe, lysate of cells pretreated with STS 2 μM", "protocol": "(§2) To study the selectivity of the prodrug, we incubated ascorbic acid pretreated TPS-DEVD-Pt-cRGD (10 μM) with several proteins, including lysozyme, pepsin, bovine serum albumin (BSA) and trypsin under identical conditions. […] As there are many different kinds of proteins or enzymes inside the cells, we further obtained the cellular lysate of normal and apoptotic U87-MG cells, which were pretreated with commonly used cell apoptosis inducer staurosporine (STS, 2 μM) to activate the caspase-3 enzyme in the cells. The cell lysates were directly incubated with TPS-DEVD-Pt-cRGD (5 μM) and the fluorescence intensity at 485 nm was monitored over time."}, "[5]": {"tested_on": "lysozyme, pepsin, bovine serum albumin (BSA) and trypsin", "assay": "Selectivity of fluorescence response against other proteins", "assay_type": "biochemical", "details": "10 μM ascorbic acid pretreated probe, identical conditions as caspase-3", "protocol": "as §2"}, "[6]": {"tested_on": "293T cells", "assay": "Confocal imaging of drug-induced apoptosis, 293T", "assay_type": "cell-based", "details": "5 μM probe, 6 h incubation, low integrin expression", "protocol": "(§3) U87-MG, MCF-7 and 293T cells were cultured in the chambers (LAB-TEK, Chambered Coverglass System) at 37° C. After 80% confluence, the culture medium was removed and washed twice with PBS buffer. The probe in DMSO stock solution was then added to the chamber to reach a final concentration of 5 μM. In some experiments, the cells were pre-incubated with media containing cRGD (50 μM) or inhibitor (5 μM) prior to prodrug incubation. After incubation the prodrug at 37° C. for 2 h, the medium was replaced with fresh medium, after that the cells were washed twice with ice-cold PBS and the cell nucleus was living stained with DRAQ5 (Biostatus) following the standard protocol of the manufacturer. […] The images were analyzed by Image J 1.43 x program (developed by NIH, http://rsbweb.nih.gov/ij/).\n(§4) To explore the capability of using TPS-DEVD-Pt-cRGD as a targeted drug delivery system and a drug induced apoptosis imaging probe in cancer cells. […] After 2 h of incubation, the cells were treated with cisplatin or staurosporine which both can activate the cell apoptosis and monitored with confocal microscopy. […] As the incubation time elapses, the fluorescence of U87-MG increases gradually with the cellular apoptotic progress, which reaches a maximum at 6 h. […]"}, "[7]": {"tested_on": "U87-MG cells", "assay": "Confocal imaging of drug-induced apoptosis, U87-MG", "assay_type": "cell-based, human", "protocol": "as §3, §4"}, "[8]": {"tested_on": "normal U87-MG cell lysate", "assay": "Fluorescence in normal cell lysate", "assay_type": "biochemical, human", "details": "5 μM probe, lysate of normal cells", "protocol": "as §2"}, "[9]": {"tested_on": "MCF-7 cells", "assay": "Confocal imaging of drug-induced apoptosis, MCF-7", "assay_type": "cell-based", "details": "5 μM probe, 6 h incubation, low integrin expression", "protocol": "as §3, §4"}, "[10]": {"assay": "Effect of ionic strength (NaCl) on emission", "assay_type": "physicochemical", "details": "NaCl 0 to 960 mM", "text": "We next studied the optical properties of our prodrug. The UV-vis absorption spectra of TPS-CH2N3 in THF and TPS-DEVD-Pt-cRGD in DMSO/PIPES (v/v=1/199) buffer were obtained. Both have similar absorption profiles with an obvious absorbance in the 320-440 nm range with a little blue shift after the modification of the AIE fluorogen. It is known that AIE fluorogen is non-fluorescent in good solvents but emits intensely in solid or as aggregates in poor solvents. […] As biosensing is often conducted in buffers, it is important to study the effect of ionic strength on the emission behavior of the prodrug. The experiments were performed with addition of sodium chloride into an aqueous solution of TPS-DEVD-Pt-cRGD (10 μM). […] TPS-DEVD-Pt-cRGD and its reduction product maintain an “off” state in the complex environment and thus have great potential to serve as a specific light-up apoptosis sensor for drug effect study with minimum background interference.\nThe photoluminescence (PL) spectra of TPE-CH2NH2 and TPE-SS-D5-cRGD in DMSO and phosphate buffered saline (PBS, pH=7.4) mixtures (v/v=1/199) are shown in FIG. 13A. […] [12] The TPE-SS-D5-cRGD probe is almost non-fluorescent in the same medium (Φ=0.001), due to the easy intramolecular rotations of the TPE phenyl rings in aqueous media. […]"}, "[11]": {"assay": "Solubility in water", "assay_type": "physicochemical", "details": "DMSO/PIPEs v/v=1/199"}, "[12]": {"tested_on": "ALP", "assay": "ALP detection in solution", "assay_type": "biochemical", "details": "emission maximum changes from 520 nm to 640 nm", "text": "The emission maximum of the solution changes from 520 nm to 640 nm in the presence of ALP."}}, "data": [{"smiles": "COC[C@@H]1CCCN1S(=O)(=O)c1ccc2c(c1)C(=O)C(=O)N2", "note": "[5-[(S)-(+)-2-(methoxymethyl)pyrrolidino]sulfonylisatin, reference compound]", "values": [{"measurement": "effect of inhibitor pretreatment on caspase-3 induced probe fluorescence", "setting": "[1]; ascorbic acid pretreated TPS-DEVD-Pt-cRGD 10 μM, caspase-3 200 pM, inhibitor 10 μM", "value": "most of the fluorescence is readily competed away"}]}, {"smiles": "N=C(N)NCCC[C@@H]1NC(=O)[C@H](CCCCNC(=O)[C@H](CC(=O)O)NC(=O)[C@H](CC(=O)O)NC(=O)[C@H](CC(=O)O)NC(=O)[C@H](CC(=O)O)NC(=O)[C@H](CC(=O)O)NC(=O)CCCCCCC(=O)NCCCC[n+]2ccc(/C=C/c3ccc(C(=C(c4ccccc4)c4ccccc4)c4ccccc4)cc3)cc2)NC(=O)[C@@H](Cc2ccccc2)NC(=O)[C@H](CC(=O)O)NC(=O)CNC1=O", "note": "[PyTPE-C6-D5-cRGD]", "values": [{"measurement": "cytotoxicity", "setting": "[2]", "value": "do not show significant cytotoxicity"}, {"measurement": "cytotoxicity", "setting": "[3]", "value": "do not show significant cytotoxicity"}]}, {"smiles": "N=C(N)NCCC[C@@H]1NC(=O)[C@H](CCCCNC(=O)[C@H](CC(=O)O)NC(=O)[C@H](CC(=O)O)NC(=O)[C@H](CC(=O)O)NC(=O)[C@H](CC(=O)O)NC(=O)[C@H](CC(=O)O)NC(=O)CCC(=O)[O][Pt-2]([NH3+])([NH3+])([Cl])([Cl])[O]C(=O)CCC(=O)NCCCC[n+]2ccc(/C=C/c3ccc(C(=C(c4ccccc4)c4ccccc4)c4ccccc4)cc3)cc2)NC(=O)[C@@H](Cc2ccccc2)NC(=O)[C@H](CC(=O)O)NC(=O)CNC1=O", "note": "[PyTPE-Pt-D5-cRGD]", "values": [{"measurement": "cytotoxicity", "setting": "[2]", "value": "much more obvious"}, {"measurement": "cytotoxicity", "setting": "[3]", "value": "minimum toxicity"}]}, {"smiles": "[NH3+][Pt-2]([NH3+])([Cl])([Cl])([O]C(=O)CCC(=O)NCCCC[n+]1ccc(/C=C/c2ccc(C(=C(c3ccccc3)c3ccccc3)c3ccccc3)cc2)cc1)[O]C(=O)CCC(=O)N[C@@H](CC(=O)O)C(=O)N[C@@H](CC(=O)O)C(=O)N[C@@H](CC(=O)O)C(=O)N[C@@H](CC(=O)O)C(=O)N[C@@H](CC(=O)O)C(=O)O", "note": "[PyTPE-Pt-D5]", "values": [{"measurement": "cytotoxicity", "setting": "[2]", "value": "do not show significant cytotoxicity"}, {"measurement": "cytotoxicity", "setting": "[3]", "value": "do not show significant cytotoxicity"}]}, {"smiles": "CC(C)[C@H](NC(=O)[C@H](CCC(=O)O)NC(=O)[C@H](CC(=O)O)NC(=O)CCC(=O)[O][Pt-2]([NH3+])([NH3+])([Cl])([Cl])[O]C(=O)CCC(=O)NCCCC[C@@H]1NC(=O)[C@@H](Cc2ccccc2)NC(=O)[C@H](CC(=O)O)NC(=O)CNC(=O)[C@H](CCCNC(=N)N)NC1=O)C(=O)N[C@@H](CC(=O)O)C(=O)N[C@@H](Cc1cn(Cc2ccc(C3=C(c4ccccc4)C(c4ccccc4)=C(c4ccccc4)[Si]3(C)C)cc2)nn1)C(N)=O", "note": "[TPS-DEVD-Pt-cRGD]", "values": [{"measurement": "fluorescence intensity at 485 nm over time", "setting": "[4]", "value": "increases quickly"}, {"measurement": "fluorescence intensity with other proteins", "setting": "[5]", "value": "remain low"}, {"measurement": "cell fluorescence", "setting": "[6]", "value": "weak fluorescence signal"}, {"measurement": "incubation time at which cell fluorescence reaches maximum", "setting": "[7]; 5 μM probe, real-time imaging", "value": 6, "unit": "h"}, {"measurement": "cell fluorescence after pretreatment with free cRGD or/and caspase-3 inhibitor", "setting": "[7]; cRGD 50 μM or inhibitor 5 μM before probe", "value": "weak fluorescence"}, {"measurement": "fluorescence intensity at 485 nm (stability to cellular proteins)", "setting": "[8]", "value": "minimum change"}, {"measurement": "cell fluorescence", "setting": "[9]", "value": "weak fluorescence signal"}, {"measurement": "change of fluorescence with NaCl", "setting": "[10]", "value": "Almost no change"}, {"measurement": "fluorescence increase over intrinsic emission with caspase-3", "setting": "[1]; 10 μM probe pretreated with ascorbic acid, DMSO/PIPES v/v=1/199, PL at 485 nm, 60 min", "value": 28, "unit": "fold"}, {"measurement": "time to fluorescence plateau after caspase-3 addition", "setting": "[1]; 10 μM probe, ascorbic acid and caspase-3, DMSO/PIPES v/v=1/199", "value": 60, "unit": "min"}, {"measurement": "detection limit for caspase-3", "setting": "[1]; three times sigma method, 10 μM probe, 1 h", "value": 1, "unit": "pM"}, {"measurement": "solubility in water", "setting": "[11]", "value": "good solubility in water"}]}, {"smiles": "CN(C)c1ccc(/C=C/C(=O)c2ccccc2OP(=O)(O)O)cc1", "note": "[probe-1]", "values": [{"measurement": "optical response to ALP", "setting": "[12]", "value": "distinct optical response"}]}]}
